Data taken from PubChem BioAssay (NCI).
Several values for one entry are separate records, joined by “and”; a condition that tells them apart may be missing. Identical values can stand only once.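 The compound was tested at five concentrations on cells cultured in 96-well plates, with a 48-hour exposure period. GI50 marks 50% less growth. TGI: concentration producing complete growth inhibition.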

How the values were obtained:
Test in all cases: growth of human tumour cells (NCI), 48 h
[1] = system: 786-0 renal
[2] = system: DMS 114 small cell lung
[3] = system: LOX IMVI melanoma
[4] = system: LXFL 529 NSCLC
[5] = system: NCI-H226 lung
[6] = system: OVCAR-8 ovarian
[7] = system: RPMI-8226 leukemia
[8] = system: RXF 393 renal
[9] = system: SN12C renal
[10] = system: SNB-19 CNS
[11] = system: SNB-78 CNS
[12] = system: TK-10 renal
[13] = system: U251 CNS
[14] = system: HOP-18 NSCLC
[15] = system: T-47D breast

`CC(C)=CCSC1CC2C(CC1(C)O)C2(C)C` (configuration not stated) was tested, and the TGI [1] was 29.6 µM and 25.8 µM, the TGI [2] was 30.7 µM and 21.7 µM and the TGI [3] was 29.7 µM. The TGI [4] was 31.7 µM and 27.1 µM, the TGI [5] was 27.5 µM and the TGI [6] was 34.3 µM and 27.1 µM. For the same compound, the TGI [7] was 48.5 µM and 61.6 µM, the GI50 [8] was 2.01 µM and 14.9 µM and the TGI [8] was 11.2 µM and 28.4 µM. For the same compound, the TGI [9] was 32 µM and 29.6 µM, the TGI [10] was 34.2 µM and 31.8 µM and the TGI [11] was 41.2 µM and 26.3 µM. The TGI [12] was 32.3 µM and 30.8 µM and the TGI [13] was 28.5 µM and 27.1 µM.
`CC[n+]1c(/C=C/c2ccc(N(CCCl)CCCl)cc2)ccc2cc(NC(=O)/C=C/c3ccccc3)ccc21` was tested, and the TGI [1] was 3.22 µM, the TGI [2] was 13.8 µM and the TGI [14] was 13 µM. The TGI [3] was 1.51 µM, the TGI [5] was 2.89 µM and the TGI [6] was 5.7 µM. The TGI [7] was 0.696 µM, the TGI [8] was 2.84 µM and the TGI [9] was 1.52 µM. The TGI [10] was 1.67 µM, the TGI [11] was 16 µM and the TGI [15] was 1.5 µM. The TGI [12] was 24.5 µM and the TGI [13] was 0.619 µM.
`CN(C)c1ccc(N=Nc2ccccn2)cc1` showed a TGI [1] greater than 100 µM, a TGI [3] greater than 100 µM and a TGI [5] greater than 100 µM. The TGI [6] was greater than 100 µM, the TGI [7] was greater than 100 µM and the TGI [8] was greater than 100 µM. For the same compound, the TGI [9] was greater than 100 µM, the TGI [10] was greater than 100 µM and the TGI [15] was greater than 100 µM. The TGI [12] was greater than 100 µM and the TGI [13] was 33 µM.
`COc1ccc(N=C(Nc2ccc(OC)cc2)C(=Nc2ccc(OC)cc2)Nc2ccc(OC)cc2)cc1` was tested, and the TGI [1] was greater than 100 µM, the TGI [3] was greater than 100 µM and the TGI [5] was greater than 100 µM. It also gave a TGI [6] greater than 100 µM, a TGI [7] greater than 100 µM and a TGI [8] greater than 100 µM. It also gave a TGI [9] greater than 100 µM, a TGI [10] greater than 100 µM and a TGI [15] greater than 100 µM. It also gave a TGI [12] greater than 100 µM and a TGI [13] greater than 100 µM.
Work on `CN1CN(c2ccccc2)C2(CCN(CCc3csc4ccccc34)CC2)C1=O` yielded a TGI [1] of 30.5 µM, a TGI [3] of 32.8 µM and a TGI [5] of 39.6 µM. It also gave a TGI [6] of 51.6 µM, a TGI [7] of 37.4 µM and a TGI [8] of 25.3 µM. It also gave a TGI [9] of 32.1 µM, a TGI [10] of 93.4 µM and a TGI [15] of 54.2 µM. The TGI [12] was 34 µM and the TGI [13] was 29.8 µM.
With `CSc1ccc(/C=C2\N=C(c3ccccc3)N(c3nc4ccc(Sc5ccccc5)cc4[nH]3)C2=O)cc1` the TGI [1] was 50.8 µM, the TGI [3] was 41.6 µM and the GI50 [5] was 20.6 µM. It also gave a TGI [5] greater than 83.1 µM, a TGI [6] greater than 87.4 µM and a TGI [7] of 57.2 µM. For the same compound, the TGI [8] was 56.9 µM, the TGI [9] was greater than 84.2 µM and the TGI [10] was greater than 89.2 µM. The TGI [15] was 60.6 µM, the TGI [12] was 60.8 µM and the TGI [13] was 41.3 µM.
`Cc1cccc(NC(=S)Nc2ccccc2Cl)n1` gave a TGI [1] greater than 100 µM, a TGI [3] greater than 100 µM and a TGI [5] greater than 100 µM. It also gave a TGI [6] of 73.7 µM, a TGI [7] greater than 100 µM and a TGI [8] of 60 µM. The TGI [9] was greater than 100 µM, the TGI [10] was 97.5 µM and the TGI [15] was greater than 100 µM. It also gave a TGI [12] greater than 100 µM and a TGI [13] greater than 100 µM.
Compound `COC(=O)c1cc(C#Cc2cc(OC)ccc2OC)ccc1OC` has a TGI [1] greater than 100 µM, a TGI [3] greater than 100 µM and a TGI [5] greater than 100 µM. The TGI [6] was greater than 100 µM, the TGI [7] was 41.3 µM and the TGI [8] was 84.1 µM. The GI50 [9] was 37.9 µM, the TGI [9] was greater than 100 µM and the TGI [10] was greater than 100 µM. It also gave a TGI [15] of 34.5 µM, a TGI [12] greater than 100 µM and a TGI [13] greater than 100 µM.
In the case of `CCC(CCCC[C@@H]1CC[C@H]2CC(=O)C[C@@H]12)OC` (some centres not stated), the TGI [1] is reported as greater than 100 µM, the TGI [3] is reported as greater than 100 µM and the TGI [5] is reported as greater than 100 µM. It also gave a TGI [6] greater than 100 µM, a TGI [7] greater than 100 µM and a TGI [8] greater than 100 µM. For the same compound, the TGI [9] was greater than 100 µM, the TGI [10] was greater than 100 µM and the TGI [15] was greater than 100 µM. The TGI [12] was greater than 100 µM and the TGI [13] was greater than 100 µM.
